Experimental data: US12077531B2, “Imidazopyridinone compound” (KISSEI PHARMACEUTICAL CO., LTD., priority 2018, dated 2024)
pIC50: −log10 of the molar value.

Molecular target: human PHD2184-418 (Homo sapiens (Human), UniProt Q9GZT9)
Test: PHD2 inhibitory test (fluorescence polarization, binding between PHD2 and HIF-1α)
Settings: human PHD2184-418, FITC-labeled HIF-1α556-574, 2 μM 2-oxoglutarate, 37° C. 60 minutes
Description: Test Example 1 PHD2 Inhibitory Test
(1) Expression and Preparation of Human PHD2184-418
Human PHD2184-418 containing amino acid residues 184 to 418 of the protein represented by CAC42509 (GenBank accession ID) was expressed and prepared by the following method.
An expression construct of human PHD2184-418 containing N-terminal histidine tag was introduced into pET-30a (+) vector, and the sequence was confirmed. This vector was introduced into BL21 (DE3) strain and cultured at 37° C. in LB medium containing antibiotics. After culturing, a cell lysis solution was added to the cells, and then the cells were disrupted by sonication. The disrupted suspension was centrifuged and the supernatant was purified by Ni column to give human PHD2184-418.
Human HIF-1α556-574 (FITC-labeled HIF-1α556-574), containing N-terminal FITC-Ahx, containing amino acid residues 556 to 574 (partial peptide) of HIF-1α was used as a substrate. Using FITC-labeled HIF-1α556-574, the competitive inhibition between 2-oxoglutarate and test compounds (PHD inhibitor) was evaluated based on the change in fluorescence polarization by the following method.
An enzyme (human PHD2184-418) and the substrate were diluted with an assay buffer (pH 7.4) containing 10 mM HEPES, 150 mM NaCl, 10 μM MnCl2-4H2O, 2 μM 2-oxoglutarate and 0.05% Tween-20. Test compounds were diluted with DMSO. Test compounds and human PHD2184-418 was added to the 384-well plate (Corning, black, opaque bottom) in advance. The reaction was started by the addition of FITC-labeled HIF-1α556-574. After incubating at 37° C. for 60 minutes, fluorescence polarization (excitation wavelength: 470 nm, fluorescence wavelength: 530 nm) was measured by PHERAstar FSX (BMG Labtech). Fluorescence polarization of each well was measured, and human PHD2 binding inhibitory activity of test compounds was calculated based on the value of test compound-free group.

Sequence of human PHD2184-418 (Q9GZT9 184-418): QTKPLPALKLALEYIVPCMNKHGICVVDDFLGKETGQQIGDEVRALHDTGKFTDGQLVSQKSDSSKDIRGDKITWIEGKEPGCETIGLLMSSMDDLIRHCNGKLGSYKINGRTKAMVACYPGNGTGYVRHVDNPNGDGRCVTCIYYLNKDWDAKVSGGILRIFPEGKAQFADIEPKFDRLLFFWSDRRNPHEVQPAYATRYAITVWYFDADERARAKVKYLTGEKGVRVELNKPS

Compound	pIC50
O=C(O)c1ccnc(CN2CC[C@H](n3c(=O)n(-c4ccc(-c5ccc(O)c(C(=O)O)c5)c(O)c4)c4cccnc43)C2)c1 [Example 51, (S)-2-((3-(1-(3′-Carboxy-2,4′-dihydroxy-[1,1′-biphenyl]-4-yl)-2-oxo-1,2-dihydro-3H-imidazo[4,5-b]pyridin-3-yl)pyrrolidin-1-yl)methyl)isonicotinic acid]	6.85
O=C(O)c1ccnc(CN2CC[C@H](n3c(=O)n(-c4ccc(-c5ccc(O)c(C(=O)O)c5)nc4)c4cccnc43)C2)c1 [Example 52, (S)-2-((3-(1-(6-(3-Carboxy-4-hydroxyphenyl)pyridin-3-yl)-2-oxo-1,2-dihydro-3H-imidazo[4,5-b]pyridin-3-yl)pyrrolidin-1-yl)methyl)isonicotinic acid]	6.55
O=C(O)c1ccnc(CN2CC[C@H](n3c(=O)n(-c4ccc(-c5ccc(O)c(C(=O)O)c5)cc4O)c4cccnc43)C2)c1 [Example 53, (S)-2-((3-(1-(3′-Carboxy-3,4′-dihydroxy-[1,1′-biphenyl]-4-yl)-2-oxo-1,2-dihydro-3H-imidazo[4,5-b]pyridin-3-yl)pyrrolidin-1-yl)methyl)isonicotinic acid]	6.85
Cn1c(C(=O)O)cnc1CN1CC[C@H](n2c(=O)n(-c3cccc(-c4ccccc4)c3)c3cccnc32)C1 [Example 54, (S)-2-((3-(1-([1,1′-Biphenyl]-3-yl)-2-oxo-1,2-dihydro-3H-imidazo[4,5-b]pyridin-3-yl)pyrrolidin-1-yl)methyl)-1-methyl-1H-imidazole-5-carboxylic acid]	6.11
CN(C)c1ccc(-n2c(=O)n([C@H]3CCN(Cc4ncc(C(=O)O)n4C)C3)c3ncccc32)cc1 [Example 55, (S)-2-((3-(1-(4-(Dimethylamino)phenyl)-2-oxo-1,2-dihydro-3H-imidazo[4,5-b]pyridin-3-yl)pyrrolidin-1-yl)methyl)-1-methyl-1H-imidazole-5-carboxylic acid]	6.31
Cn1c(C(=O)O)cnc1CN1CC[C@H](n2c(=O)n(-c3ccc(Oc4ccccc4)cc3)c3cccnc32)C1 [Example 56, (S)-1-Methyl-2-((3-(2-oxo-1-(4-phenoxyphenyl)-1,2-dihydro-3H-imidazo[4,5-b]pyridin-3-yl)pyrrolidin-1-yl)methyl)-1H-imidazole-5-carboxylic acid]	6.39
Cn1c(C(=O)O)cnc1CN1CC[C@H](n2c(=O)n(-c3ccc(Cc4ccccc4)cc3)c3cccnc32)C1 [Example 57, (S)-2-((3-(1-(4-Benzylphenyl)-2-oxo-1,2-dihydro-3H-imidazo[4,5-b]pyridin-3-yl)pyrrolidin-1-yl)methyl)-1-methyl-1H-imidazole-5-carboxylic acid]	6.15
Cc1ccc(-n2c(=O)n([C@H]3CCN(Cc4ncc(C(=O)O)n4C)C3)c3ncccc32)cc1 [Example 58, (S)-1-Methyl-2-((3-(2-oxo-1-(p-tolyl)-1,2-dihydro-3H-imidazo[4,5-b]pyridin-3-yl)pyrrolidin-1-yl)methyl)-1H-imidazole-5-carboxylic acid]	5.99
Cn1c(C(=O)O)cnc1CN1CC[C@H](n2c(=O)n(-c3ccc(Cl)cc3)c3cccnc32)C1 [Example 59, (S)-2-((3-(1-(4-Chlorophenyl)-2-oxo-1,2-dihydro-3H-imidazo[4,5-b]pyridin-3-yl)pyrrolidin-1-yl)methyl)-1-methyl-1H-imidazole-5-carboxylic acid]	6.74
CSc1ccc(-n2c(=O)n([C@H]3CCN(Cc4ncc(C(=O)O)n4C)C3)c3ncccc32)cc1 [Example 60, (S)-1-Methyl-2-((3-(1-(4-(methylthio)phenyl)-2-oxo-1,2-dihydro-3H-imidazo[4,5-b]pyridin-3-yl)pyrrolidin-1-yl)methyl)-1H-imidazole-5-carboxylic acid]	6.23
Cn1c(C(=O)O)cnc1CN1CC[C@H](n2c(=O)n(-c3ccc(OC(F)(F)F)cc3)c3cccnc32)C1 [Example 62, (S)-1-Methyl-2-((3-(2-oxo-1-(4-(trifluoromethoxy)phenyl)-1,2-dihydro-3H-imidazo[4,5-b]pyridin-3-yl)pyrrolidin-1-yl)methyl)-1H-imidazole-5-carboxylic acid]	5.73
Cn1c(C(=O)O)cnc1CN1CC[C@H](n2c(=O)n(-c3ccc(C(F)(F)F)cc3)c3cccnc32)C1 [Example 63, (S)-1-Methyl-2-((3-(2-oxo-1-(4-(trifluoromethyl)phenyl)-1,2-dihydro-3H-imidazo[4,5-b]pyridin-3-yl)pyrrolidin-1-yl)methyl)-1H-imidazole-5-carboxylic acid]	5.72
Cn1c(C(=O)O)cnc1CN1CC[C@H](n2c(=O)n(-c3ccc(C#N)cc3)c3cccnc32)C1 [Example 64, (S)-2-((3-(1-(4-Cyanophenyl)-2-oxo-1,2-dihydro-3H-imidazo[4,5-b]pyridin-3-yl)pyrrolidin-1-yl)methyl)-1-methyl-1H-imidazole-5-carboxylic acid]	5.10
Cn1c(C(=O)O)cnc1CN1CC[C@H](n2c(=O)n(-c3ccc([N+](=O)[O-])cc3)c3cccnc32)C1 [Example 65, (S)-1-Methyl-2-((3-(1-(4-nitrophenyl)-2-oxo-1,2-dihydro-3H-imidazo[4,5-b]pyridin-3-yl)pyrrolidin-1-yl)methyl)-1H-imidazole-5-carboxylic acid]	5.62
Cn1c(C(=O)O)cnc1CN1CC[C@H](n2c(=O)n(-c3cnc4ccccc4c3)c3cccnc32)C1 [Example 66, (S)-1-Methyl-2-((3-(2-oxo-1-(quinolin-3-yl)-1,2-dihydro-3H-imidazo[4,5-b]pyridin-3-yl)pyrrolidin-1-yl)methyl)-1H-imidazole-5-carboxylic acid]	5.93
Cn1c(C(=O)O)cnc1CN1CC[C@H](n2c(=O)n(-c3ccc(N4CCOCC4)cc3)c3cccnc32)C1 [Example 67, (S)-1-Methyl-2-((3-(1-(4-morpholinophenyl)-2-oxo-1,2-dihydro-3H-imidazo[4,5-b]pyridin-3-yl)pyrrolidin-1-yl)methyl)-1H-imidazole-5-carboxylic acid]	6.28
Cn1c(C(=O)O)cnc1CN1CC[C@H](n2c(=O)n(C3CCC(c4ccccc4)CC3)c3cccnc32)C1 (stereo partly drawn) [Example 68, (S)-1-Methyl-2-((3-(2-oxo-1-(4-phenylcyclohexyl)-1,2-dihydro-3H-imidazo[4,5-b]pyridin-3-yl)pyrrolidin-1-yl)methyl)-1H-imidazole-5-carboxylic acid]	5.09
C=Cc1ccc(-n2c(=O)n([C@H]3CCN(Cc4ncc(C(=O)O)n4C)C3)c3ncccc32)cc1 [Example 69, (S)-1-Methyl-2-((3-(2-oxo-1-(4-vinylphenyl)-1,2-dihydro-3H-imidazo[4,5-b]pyridin-3-yl)pyrrolidin-1-yl)methyl)-1H-imidazole-5-carboxylic acid]	6.30
Cn1c(C(=O)O)cnc1CN1CC[C@H](n2c(=O)n(-c3ccsc3)c3cccnc32)C1 [Example 70, (S)-1-Methyl-2-((3-(2-oxo-1-(thiophen-3-yl)-1,2-dihydro-3H-imidazo[4,5-b]pyridin-3-yl)pyrrolidin-1-yl)methyl)-1H-imidazole-5-carboxylic acid]	5.84
Cn1c(C(=O)O)cnc1CN1CC[C@H](n2c(=O)n(Cc3ccccc3)c3cccnc32)C1 [Example 71, (S)-2-((3-(1-Benzyl-2-oxo-1,2-dihydro-3H-imidazo[4,5-b]pyridin-3-yl)pyrrolidin-1-yl)methyl)-1-methyl-1H-imidazole-5-carboxylic acid]	4.86
Cn1c(C(=O)O)cnc1CN1CC[C@H](n2c(=O)n(-c3ccc(O)cc3)c3cccnc32)C1 [Example 73, (S)-2-((3-(1-(4-Hydroxyphenyl)-2-oxo-1,2-dihydro-3H-imidazo[4,5-b]pyridin-3-yl)pyrrolidin-1-yl)methyl)-1-methyl-1H-imidazole-5-carboxylic acid]	5.52
Cn1c(C(=O)O)cnc1CN1CC[C@H](n2c(=O)n(-c3ccc(-c4ccc(NS(C)(=O)=O)cc4)cc3)c3cccnc32)C1 [Example 74, (S)-1-Methyl-2-((3-(1-(4′-(methylsulfonamido)-[1,1′-biphenyl]-4-yl)-2-oxo-1,2-dihydro-3H-imidazo[4,5-b]pyridin-3-yl)pyrrolidin-1-yl)methyl)-1H-imidazole-5-carboxylic acid]	5.73
Cc1cccnc1CN1CC[C@H](n2c(=O)n(-c3ccc(C(=O)NCC(=O)O)cc3)c3cccnc32)C1 [Example 75, (S)-(4-(3-(1-((3-Methylpyridin-2-yl)methyl)pyrrolidin-3-yl)-2-oxo-2,3-dihydro-1H-imidazo[4,5-b]pyridin-1-yl)benzoyl)glycine]	4.00
Cn1c(C(=O)O)cnc1CN1CC[C@H](n2c(=O)n(-c3ccc(-c4ccccc4)cc3)c3ccc(C(=O)NC4CCOCC4)nc32)C1 [Example 76, (S)-2-((3-(1-([1,1′-Biphenyl]-4-yl)-2-oxo-5-((tetrahydro-2H-pyran-4-yl)carbamoyl)-1,2-dihydro-3H-imidazo[4,5-b]pyridin-3-yl)pyrrolidin-1-yl)methyl)-1-methyl-1H-imidazole-5-carboxylic acid]	5.01
